Results: patent US10858342B2, “Bicyclic imidazole derivatives useful for the treatment of renal diseases, cardiovascular diseases and fibrotic diseases” (Boehringer Ingelheim International GmbH, priority 2016, dated 2020)
Where two headings read alike, the source gives them in different places.

Tests used:
Assay type in all cases: biochemical, cynomolgus monkey
[1] = test system: aldosterone synthase (CYP11B2); experiment: Inhibition of aldosterone synthase (cynomolgus adrenal mitochondria, aldosterone by mass spectrometry); settings: selectivity for aldosterone synthase inhibition over cortisol synthase (CYP11B1) inhibition, fold
Experimental: (§1) The aldosterone synthase and cortisol synthase inhibition assays employ cynomolgus adrenal gland mitochondria as the source of aldosterone synthase (CYP11B2) and cortisol synthase (CYP11B1). […] One unit of CYP11B2 and CYP11B1 activity in these preparations is defined as the amount of enzyme that generates 1 pmol of product in one hour under the conditions described.
(§2) The compounds of the invention may be evaluated for aldosterone synthase inhibition by the following assay:
(§3) Assays are performed in 96-well format in a final volume of 60 microL/well, containing 100 mM potassium phosphate, pH 7.4, 1% (v/v) DMSO, and additionally, 2 μM of corticosterone and 50 units of CYP11B2 activity. Reactions are started by the addition of NADPH to 1 mM and allowed to proceed for 90 minutes at 37° C. Reactions are terminated by the addition of 60 μL of MeCN containing an internal standard for mass spectrometry. One hundred microliters are then transferred to a glass filter plate and centrifuged at 570×g for 5 minutes and the filtrate is collected. Reaction product aldosterone is quantified by mass spectrometry. To determine the assay blank value (0% activity), NADPH is omitted from some reactions.
(§4) Dose dependent inhibition is quantified by the inclusion of compound at various concentrations. Maximum activity (100%) is defined by reactions containing NADPH, but without compound.

[2] = target: aldosterone synthase (CYP11B2) (Macaca fascicularis, UniProt A0A2K5UPL9); experiment: as above
Sequence of aldosterone synthase (CYP11B2) (Macaca fascicularis, UniProt A0A2K5UPL9) (A0A2K5UPL9 1-503): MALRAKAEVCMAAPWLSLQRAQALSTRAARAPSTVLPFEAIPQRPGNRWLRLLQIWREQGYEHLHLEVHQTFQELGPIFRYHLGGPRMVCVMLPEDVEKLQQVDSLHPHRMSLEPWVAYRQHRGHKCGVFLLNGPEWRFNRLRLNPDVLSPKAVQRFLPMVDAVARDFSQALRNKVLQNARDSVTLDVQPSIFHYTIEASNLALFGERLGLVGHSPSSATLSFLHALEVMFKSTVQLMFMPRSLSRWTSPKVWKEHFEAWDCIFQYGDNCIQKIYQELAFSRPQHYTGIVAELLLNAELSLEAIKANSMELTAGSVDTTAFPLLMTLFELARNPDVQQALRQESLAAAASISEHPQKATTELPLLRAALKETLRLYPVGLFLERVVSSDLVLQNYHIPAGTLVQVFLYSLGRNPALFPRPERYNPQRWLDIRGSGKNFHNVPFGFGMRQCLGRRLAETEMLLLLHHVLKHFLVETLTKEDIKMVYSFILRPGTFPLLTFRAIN
Experimental: as §1, §2, §3, §4

[3] = target: cortisol synthase (CYP11B1) (Macaca fascicularis, UniProt A0A2K5ULY1); experiment: Inhibition of cortisol synthesis (cynomolgus adrenal mitochondria, cortisol by mass spectrometry)
Experimental: The aldosterone synthase and cortisol synthase inhibition assays employ cynomolgus adrenal gland mitochondria as the source of aldosterone synthase (CYP11B2) and cortisol synthase (CYP11B1). Mitochondria are prepared from frozen cynomolgus monkey adrenal glands according to Method A described in by J. D. McGarry et al. (Biochem. J., 1983, 214, 21-28), with a final resuspension in the AT buffer described in R. Yamaguchi et al. (Cell Death and Differentiation, 2007, 14, 616-624), frozen as aliquots in liquid nitrogen and stored at −80° C. until use. One unit of CYP11B2 and CYP11B1 activity in these preparations is defined as the amount of enzyme that generates 1 pmol of product in one hour under the conditions described.
as §3
Dose dependent inhibition is quantified by the inclusion of compound at various concentrations. Maximum activity (100%) is defined by reactions containing NADPH, but without compound. Activities at each concentration are expressed as a percentage of the maximum activity (y-axis) and plotted against concentration of compound (x-axis) and the concentration corresponding to 50% activity (IC50) determined using the XLFit curve-fitting program using a 4-parameter logistic model.
Assays are performed as for aldosterone synthase except for the use of 150 units of CYP11B1, 11-deoxycortisol as substrate and cortisol measured as product.

[4] = 2 μM corticosterone substrate, 50 units CYP11B2, 90 min, 37° C., read-out: Aldosterone Inhibition IC50
[5] = 11-deoxycortisol substrate, 150 units CYP11B1; read-out: Cortisol Inhibition IC50
[6] = read-out: Cortisol Inhibition IC50; 11-deoxycortisol substrate, 150 units CYP11B1

Compound | Selectivity [1] | IC50 [2, 4] [nM] | IC50 [3, 5] [nM] | IC50 [3, 6] [nM] | IC50 [2] [nM]
3-(4-Chloroophenyl)-6,6-spirocyclopropyl-3,5,6,7-tetrahydro-benzimidazolo-4-one [C-ACF] | 57 | 10 | 590 |  | 
3-(4-Cyanophenyl)-6,6-(3-tetrahydrofuran)-3,5,6,7-benzimidiazolo-4-one [C-ABA-B] | 53 | 16 | 850 |  | 
CCO[C@H]1C[C@H](n2cnc3c2C(=O)CC(C)(C)C3)C12CCC2 (relative stereo) [C-ADM, 3-((1S,3S)-3-Ethoxy-spiro[3.3]hept-1-yl)-6,6-dimethyl-3,5,6,7-tetrahydro-benzoimidazol-4-one] | 420 | 72 | > 30000 |  | 
C[C@@H]1Cc2cc(-n3cnc4c3C(=O)CCC4)ccc2O1 (stereo in doubt) [C-AAZ-A, 3-(2-Methyl-2,3-dihydro-benzofuran-5-yl)-3,5,6,7-tetrahydro-benzoimidazol-4-one] | 100 | 300 | > 30000 |  | 
C[C@H]1Cc2cc(-n3cnc4c3C(=O)CCC4)ccc2O1 (stereo in doubt) [C-AAZ-B, 3-(2-Methyl-2,3-dihydro-benzofuran-5-yl)-3,5,6,7-tetrahydro-benzoimidazol-4-one] | 430 | 70 | > 30000 |  | 
CC(=O)N1CCc2cc(-n3cnc4c3C(=O)CCC4)ccc21 [C-AAA, 3-(1-Acetyl-2,3-dihydro-1H-indol-5-yl)-3,5,6,7-tetrahydro-benzoimidazol-4-one] | 59 | 510 | > 30000 |  | 
O=C1CCCc2ncn(-c3ccc4c(c3)COC4)c21 [C-AAB, 3-(1,3-Dihydro-isobenzofuran-5-yl)-3,5,6,7-tetrahydro-benzoimidazol-4-one] | 270 | 85 | 23000 |  | 
CN1Cc2cc(-n3cnc4c3C(=O)CCC4)ccc2CC1=O [C-AAC, 2-Methyl-7-(7-oxo-4,5,6,7-tetrahydro-benzoimidazol-1-yl)-1,4-dihydro-2H-isoquinolin-3-one] | 42 | 720 | > 30000 |  | 
CN1C(=O)CCc2cc(-n3cnc4c3C(=O)CCC4)cnc21 [C-AAD, 1-Methyl-6-(7-oxo-4,5,6,7-tetrahydro-benzoimidazol-1-yl)-3,4-dihydro-1H-[1,8]naphthyridin-2-one] | 200 | 150 | > 30000 |  | 
O=C1CCCc2ncn(-c3ccc4c(c3)CCO4)c21 [C-AAE, 3-(2,3-Dihydro-benzofuran-5-yl)-3,5,6,7-tetrahydro-benzoimidazol-4-one] | 890 | 11 | 9400 |  | 
CC(=O)N1CCCc2cc(-n3cnc4c3C(=O)CCC4)ccc21 [C-AAF, 3-(1-Acetyl-1,2,3,4-tetrahydro-quinolin-6-yl)-3,5,6,7-tetrahydro-benzoimidazol-4-one] | 270 | 37 | 10000 |  | 
Cn1ncc2cc(-n3cnc4c3C(=O)CCC4)ccc21 [C-AAG, 3-(1-Methyl-1H-indazol-5-yl)-3,5,67,-tetrahydro-benzoimidazol-4-one] | 300 | 100 | > 30000 |  | 
Cn1ncc2ccc(-n3cnc4c3C(=O)CCC4)cc21 [C-AAH, 3-(1-Methyl-1H-indazol-6-yl)-3,5,67,-tetrahydro-benzoimidazol-4-one] | 630 | 48 | > 30000 |  | 
O=C1CCCc2ncn(-c3ccc4c(c3)OCCO4)c21 [C-AAI, 3-(2,3-Dihydro-benzo[1,4]dioxin-6-yl)-3,5,6,7-tetrahydro-benzoimidazol-4-one] | 180 | 160 | > 30000 |  | 
N#Cc1ccc(-n2cnc3c2C(=O)CC2(CCOCC2)C3)cc1Cl [C-AAQ, 3-(3-Chloro-4-cyano-phenyl)-6,6-3-o-tetrahydropyran-3,5,6,7-tetrahydro-benzoimidazol-4-one] |  | 44 |  | 2900 | 
CCOC(=O)C1CC(=O)c2c(ncn2-c2ccc(C#N)c(Cl)c2)C1 (stereo not drawn) [C-AAY, 1-(3-Chloro-4-cyano-phenyl)-7-oxo-4,5,6,7-tetrahydro-1H-benzoimidazole-5-carboxylic acid ethyl ester] |  | 7.3 |  | 5100 | 

Compound | Selectivity [1] | IC50 [2, 4] [nM] | IC50 [3, 5] [nM] | IC50 [3, 6] [nM] | IC50 [2] [nM]
CC(C)Oc1ccc(-n2cnc3c2C(=O)CC(C)(C)C3)cc1 [C-ABQ, 3-(4-Isoporopoxy-phenyl)-6,6-dimethyl-3,5,6,7-tetrahydro-benzoimidazol-4-one] |  | 280 | > 100000 |  | 
CC1(C)CC(=O)c2c(ncn2-c2cccc(C#N)c2)C1 [C-ABS, 3-(5,5-Dimethyl-7-oxo-4,5,6,7-tetrahydro-benzoimidazol-1-yl)-benzonitrile] |  | 250 | 10000 |  | 
Cc1ccc(-n2cnc3c2C(=O)CC(C)(C)C3)cc1C#N [C-ABY, 5-(5,5-Dimethyl-7-oxo-4,5,6,7-tetrahydro-benzoimidazol-1-yl)-2-methyl-benzonitrile] |  | 130 | 7300 |  | 
O=C1CCCc2ncn(-c3ccc(Cl)c(Cl)c3)c21 [C-ACC, 3-(3,4-Dichloro-phenyl)-3,5,6,7-tetrahydro-benzoimidazol-4-one] |  | 5.5 | 1000 |  | 
N#C[C@H]1CC[C@H](n2cnc3c2C(=O)CCC3)CC1 [C-ACJ, trans-4-(7-Oxo-5,6-dihydro-4H-benzimidazol-1-yl)cyclohexanecarbonitrile] |  | 30 | 13000 |  | 
CC1(C)CC(=O)c2c(ncn2C2CCCCC2)C1 [C-ACK, 3-Cyclohexyl-6,6-dimethyl-3,5,6,7etrahydro-benzoimidazol-4-one] |  | 260 | 6100 |  | 
CC1(C)CC(=O)c2c(ncn2C2CCc3cc(Br)ccc3C2)C1 (stereo not drawn) [C-ACM, 3-(6-Bromo-1,2,3,4-tetrahydro-naphthalen-2-yl)-6,6-dimethyl-3,5,6,7-tetrahydro-benzoimidazol-4-on] |  | 53 | > 30000 |  | 
CC1(C)CC(=O)c2c(ncn2C2CCC3CCCCC3C2)C1 (stereo not drawn) [C-ACO, 3-(Decahydro-naphthalen-2-yl)-6,6-dimethyl-3,5,6,7-tetrahydro-benzoimdazol-4-one] |  | 420 | 14000 |  | 
CC1(C)CC(=O)c2c(ncn2C2CCCc3ccccc32)C1 (stereo not drawn) [C-ACS, 6,6-Dimethyl-3-(1,2,3,4-tetrahydronaphthalen-1-yl)-3,5,6,7-tetrahydro-benzoimidazol-4-one] |  | 93 |  | 26000 | 
CC(=O)Nc1ccc(Cn2cnc3c2C(=O)CC(C)(C)C3)cc1 [C-ADE, N-[4-(5,5-Dimethyl-7-oxo-4,5,6,7-tetrahydro-benzoimidazol-1-ylmethyl)-phenyl]-acetamide] |  | 58 | 1900 |  | 
CC1(C)CC(=O)c2c(ncn2C2Cc3ccccc3C2)C1 [C-ADG] |  | 47 | 61000 |  | 
CC1(C)CC(=O)c2c(ncn2[C@H]2CC[C@@H](C#N)CC2)C1 [C-ADL, 4-(5,5-Dimethyl-7-oxo-4,5,6,7-tetrahydro-benzoimidazol-1-yl)-cyclohexanecarbonitrile] |  | 22 | 7900 |  | 
CC1(C)CC(=O)c2c(ncn2Cc2ccc(C(=O)N3CC[C@@H](O)C3)cc2)C1 [C-ADT, 3-[4-((R)-3-Hydroxy-pyrrolidine-1-carbonyl)-benzyl]-6,6-dimethyl-3,5,6,7-tetrahydro-benzoimidazol-4-one] |  | 290 | 29000 |  | 
N#Cc1ccc(-n2cnc3c2C(=O)CCC3)nc1 [C-ADW, 6-(7-Oxo-4,5,6,7-tetrahydro-benzoimidazol-1-yl)-nicotinonitrile] |  |  | 25000 |  | 290
N#Cc1ccc(-n2cnc3c2C(=O)CC(CO)C3)cc1Cl (stereo not drawn) [C-AED, 2-Chloro-4-(5-hydroxymethyl-7-oxo-4,5,6,7-tetrahydro-benzoimidazol-1-yl)-benzonitrile] |  | 18 |  | 8600 | 
CN(C)C(=O)[C@H]1CC(=O)c2c(ncn2-c2ccc(C#N)c(Cl)c2)C1 [C-AEE, (R)-1-(3-Chloro-4-cyano-phenyl)-7-oxo-4,5,6,7-tetrahydro-1H-benzoimidazole-5-carboxylic acid dimethylamide] |  | 190 |  | > 30000 | 
